In PMC9966667, “Permeability Assessment of a High-Throughput Mucosal Platform” (Pharmaceutics, 2023):

Experiments:
[1] = PermeaPad + mucus permeability assay (cystic fibrosis mucus model on PermeaPad 96-well plate); type: in vitro ADME; conditions: for Effect of mucus on Papp: Papp vs. Papp mucus, significance at p < 0.05; for Effect of mucus on Papp / statistical significance of the difference in permeation with vs without mucus: Student's t-test; for Papp at 5 h: not told, PermeaPad + mucus model, donor 100 or 500 µM in 10 mM PB pH 7.4, 5% DMSO, single timepoint 5 h, mean (±SD), n>=3, read-out: Papp mucus ± SD • 10^6; for permeation in the presence of mucus versus without mucus: PermeaPad + mucus vs PermeaPad; for statistical significance of the difference in permeation with vs without mucus: p < 0.05
Description: The pathological mucus model produced by Bac3Gel Lda. was prepared as previously described. […] The mucin suspension was prepared in mQ water.
Next, 20 µL of the mucus mixture was pipetted into the donor compartment of the PermeaPad plate (i.e., PermeaPad + mucus, from here on). The donor plate was carefully shaken to homogeneously distribute the mucus over the entire surface of the well. This step is also useful to get rid of the air bubbles that can form during the mixing of the mucus reagents. Before running the permeation measurements, the mucus was allowed to crosslink overnight by storing the PermeaPad plate at 4 °C.
(§1) The permeability assay was conducted in the absence (i.e., PermeaPad) and presence (i.e., PermeaPad + mucus) of the pathological mucus model. Stock solutions of drugs were prepared at 10 mg/mL in DMSO; working solutions were prepared by diluting the stocks within soluble concentration ranges (either 100 or 500 µM) in a 10 mM phosphate buffer (PB) (pH 7.4, 5% DMSO). The donor compartments of the PermeaPad plate were then filled with 200 µL of the drug working solution, while the acceptor compartments were filled with 400 µL of PB buffer (5% DMSO). […] (1) Papp=dQ/dt/C0×A where dQ represents the quantity of drug expressed as moles permeated into the acceptor compartment at time t (18.000 s), C0 is the initial concentration in the donor compartment, and A is the area of the PermeaPad membrane (0.15 cm^2).
(§2) The concentration of the drug in each acceptor well was determined using a Varian HPLC equipped with a 410 autosampler and a C18 column (150 × 2 mm, […], 100) and detected on a Varian 320 MS TQ mass spectrometer equipped with an electrospray ionization (ESI) source operating in positive or negative mode. The detector was used in multiple-reaction monitoring (MRM). Mobile phases composed of acetonitrile and water, 0.1% formic acid, or ammonium acetate (5 mM, pH 6.6), were pumped at 200 µL/min, following a gradient program. The injection volume was 5 µL. Quantifications were achieved according to a seven-point calibration curve specific to each compound.
(§3) A minimum of three replicates were performed for each compound, with and without mucus. All the quantitative data are reported as the mean ± standard deviation (SD). Statistical significance was calculated by applying the Student’s t test; a p < 0.05 was considered to be statistically significant and is indicated with asterisks (i.e., * p < 0.05, ** p < 0.01, *** p < 0.001, **** p < 0.0001).

[2] = PermeaPad 96-well plate permeability assay (absence of mucus); type: in vitro ADME; conditions: for Papp at 5 h: not told, pH 7.4, PermeaPad without mucus
Description: as §1, §2, §3

mucins = system: mucins; set-up: method as in PMID 26169405, PMID 7535039, PMID 33405639; conditions: polycationic drugs; cited from earlier work
[3] = donor 100 or 500 µM in 10 mM PB pH 7.4, 5% DMSO, single timepoint 5 h, mean (±SD), n>=3, read-out: Papp ± SD • 10^6
[4] = 5 h, extremes of measured range, trametinib value set because below limit of detection, read-out: apparent permeability (Papp)

| Molecule | Effect of mucus on Papp [1] | Papp at 5 h [1] | Papp at 5 h [2, 3] | statistical significance of the difference in permeation with vs without mucus [1] | Papp at 5 h [2, 4] | concentration in the acceptor compartment ([2]; PermeaPad, 5 h, HPLC-ESI-MS) | permeation in the presence of mucus versus without mucus [1] | interaction with mucins (mucins) |
| --- | --- | --- | --- | --- | --- | --- | --- | --- |
| CC(=O)Nc1ccc(O)cc1 [Acetaminophen] | Reduced | 1.77 ×10⁻⁶ cm/s | 4.55 ×10⁻⁶ cm/s |  |  |  |  |  |
| Nc1nc2c(ncn2COCCO)c(=O)[nH]1 [Acyclovir] | Reduced | 0.83 ×10⁻⁶ cm/s | 2.17 ×10⁻⁶ cm/s |  |  |  |  |  |
| CCOC(=O)C1=C(COCCN)NC(C)=C(C(=O)OC)C1c1ccccc1Cl (centres unmarked) [Amlodipine] | None | 0.35 ×10⁻⁶ cm/s | 0.66 ×10⁻⁶ cm/s |  |  |  |  |  |
| COC(=O)N[C@H](C(=O)N[C@@H](Cc1ccccc1)[C@@H](O)CN(Cc1ccc(-c2ccccn2)cc1)NC(=O)[C@@H](NC(=O)OC)C(C)(C)C)C(C)(C)C [Atazanavir] | None | 0.13 ×10⁻⁶ cm/s | 0.19 ×10⁻⁶ cm/s |  |  |  |  |  |
| C[C@H]1[C@H](NC(=O)/C(=N\OC(C)(C)C(=O)O)c2csc(N)n2)C(=O)N1S(=O)(=O)O [Aztreonam] | None | 0.17 ×10⁻⁶ cm/s | 0.18 ×10⁻⁶ cm/s |  |  |  |  |  |
| CC(C(=O)O)c1cccc(C(=O)c2ccccc2)c1 (centres unmarked) [Ketoprofen] |  |  |  |  |  |  | higher permeation in the presence of mucus |  |
| CN(C)[C@@H]1C(O)=C(C(N)=O)C(=O)[C@@]2(O)C(O)=C3C(=O)c4c(O)cccc4[C@@](C)(O)[C@H]3C[C@@H]12 [Tetracycline] | Reduced | 0.2 ×10⁻⁶ cm/s |  |  |  |  |  |  |
| NC[C@H]1O[C@H](O[C@H]2[C@H](O)[C@@H](O[C@H]3O[C@H](CO)[C@@H](O)[C@H](N)[C@H]3O)[C@H](N)C[C@@H]2N)[C@H](N)C[C@@H]1O [tobramycin] |  |  |  |  |  |  |  | strongly interact with mucins |
| colistin |  |  |  |  |  |  |  | strongly interact with mucins |
| polymyxin |  |  |  |  |  |  |  | strongly interact with mucins |

Now from value to molecule, other results behind:

| Effect of mucus on Papp [1] | Papp at 5 h [1] | Papp at 5 h [2, 3] | statistical significance of the difference in permeation with vs without mucus [1] | Papp at 5 h [2, 4] | concentration in the acceptor compartment ([2]; PermeaPad, 5 h, HPLC-ESI-MS) | Molecule | permeation in the presence of mucus versus without mucus [1] | interaction with mucins (mucins) |
| --- | --- | --- | --- | --- | --- | --- | --- | --- |
| Reduced | 0.87 ×10⁻⁶ cm/s | 3.06 ×10⁻⁶ cm/s |  |  |  | CCS(=O)(=O)N1CC(CC#N)(n2cc(-c3ncnc4[nH]ccc34)cn2)C1 [Baricitinib] |  |  |
| Reduced | 0.81 ×10⁻⁶ cm/s | 2.16 ×10⁻⁶ cm/s |  |  |  | CN(C)C(=O)COC(=O)Cc1ccc(OC(=O)c2ccc(NC(=N)N)cc2)cc1 [Camostat] |  |  |
| Increased | 6.18 ×10⁻⁶ cm/s | 5.15 ×10⁻⁶ cm/s |  |  |  | NC(=O)c1nc(F)c[nH]c1=O [Favipiravir] | higher permeation in the presence of mucus |  |
| None | 1.2 ×10⁻⁶ cm/s | 0.94 ×10⁻⁶ cm/s | not statistically significant |  |  | CC(C)Cc1ccc(C(C)C(=O)O)cc1 (centres unmarked) [Ibuprofen] | higher permeation in the presence of mucus |  |
| Reduced | 1.11 ×10⁻⁶ cm/s | 1.81 ×10⁻⁶ cm/s |  |  |  | CC(CCc1ccccc1)NCC(O)c1ccc(O)c(C(N)=O)c1 (centres unmarked) [Labetalol] |  |  |
| None | 1.61 ×10⁻⁶ cm/s | 1.7 ×10⁻⁶ cm/s |  |  |  | CCn1cc(C(=O)O)c(=O)c2cc(F)c(N3CCNCC3)cc21 [Norfloxacin] |  |  |
| Reduced | 0.6 ×10⁻⁶ cm/s | 2.67 ×10⁻⁶ cm/s |  |  |  | CCN(CC)CCOC(=O)c1ccc(N)cc1 [Procaine] |  |  |
| Reduced | 1.08 ×10⁻⁶ cm/s | 4.26 ×10⁻⁶ cm/s |  |  |  | CC(C)NCC(O)COc1cccc2ccccc12 (centres unmarked) [Propranolol] |  |  |
| None | 0.71 ×10⁻⁶ cm/s | 0.7 ×10⁻⁶ cm/s |  |  |  | CO[C@H]1/C=C/O[C@@]2(C)Oc3c(C)c(O)c4c(O)c(c(/C=N/N5CCN(C)CC5)c(O)c4c3C2=O)NC(=O)/C(C)=C\C=C\[C@H](C)[C@H](O)[C@@H](C)[C@@H](O)[C@@H](C)[C@H](OC(C)=O)[C@@H]1C [Rifampicin] |  |  |
| None | 0.08 ×10⁻⁶ cm/s | 0.09 ×10⁻⁶ cm/s |  |  |  | CO[C@H]1/C=C/O[C@@]2(C)Oc3c(C)c(O)c4c(O)c(c5c(nc6cc(C)ccn65)c4c3C2=O)NC(=O)/C(C)=C\C=C\[C@H](C)[C@H](O)[C@@H](C)[C@@H](O)[C@@H](C)[C@H](OC(C)=O)[C@@H]1C [Rifaximin] |  |  |
| None |  | 0.01 ×10⁻⁶ cm/s |  | 0.0079 ×10⁻⁶ cm/s |  | O=C(Nc1c(Cl)cncc1Cl)c1ccc(OC(F)F)c(OCC2CC2)c1 [Roflumilast] |  |  |
| Reduced | 0.64 ×10⁻⁶ cm/s | 2.34 ×10⁻⁶ cm/s |  |  |  | CC(C)(C)NCC(O)c1ccc(O)c(CO)c1 (centres unmarked) [Salbutamol] |  |  |
| None | 4.89 ×10⁻⁶ cm/s | 2.71 ×10⁻⁶ cm/s | not statistically significant |  |  | O=C(O)c1ccccc1O [Salicylic acid] | higher permeation in the presence of mucus |  |
| Reduced | 0.01 ×10⁻⁶ cm/s | 0.08 ×10⁻⁶ cm/s |  |  |  | CC(C)(C)NC(=O)[C@@H]1C[C@@H]2CCCC[C@@H]2CN1C[C@@H](O)[C@H](Cc1ccccc1)NC(=O)[C@H](CC(N)=O)NC(=O)c1ccc2ccccc2n1 [Saquinavir] |  |  |
| None | 0.21 ×10⁻⁶ cm/s | 0.48 ×10⁻⁶ cm/s |  |  |  | C=CC(=O)N1CCN(c2nc(=O)n(-c3c(C)ccnc3C(C)C)c3nc(-c4c(O)cccc4F)c(F)cc23)[C@@H](C)C1 [Sotorasib] |  |  |
| None |  |  |  | 0.001 ×10⁻⁶ cm/s | below the limit of detection | CC(=O)Nc1cccc(-n2c(=O)n(C3CC3)c(=O)c3c(Nc4ccc(I)cc4F)n(C)c(=O)c(C)c32)c1 [Trametinib] |  |  |
